The source of these data is PMC3901029 (Biochemical and biophysical research communications, 2013).

For the assay, the target named is MJ (MJ0796-G174W-G14C, single-Cys mutant based on Cys-less MJ0796; isolated nucleotide-binding domain) (Methanocaldococcus jannaschii, UniProt Q58206, C128I/C53G/G14C/G174W/K44A). The experiment in a line: Trp174 fluorescence quenching.
MJ (MJ0796-G174W-G14C, single-Cys mutant based on Cys-less MJ0796; isolated nucleotide-binding domain), sequence (Q58206 whole entry G14C/K44A/C53G/C128I/G174W, the tested form may be a part): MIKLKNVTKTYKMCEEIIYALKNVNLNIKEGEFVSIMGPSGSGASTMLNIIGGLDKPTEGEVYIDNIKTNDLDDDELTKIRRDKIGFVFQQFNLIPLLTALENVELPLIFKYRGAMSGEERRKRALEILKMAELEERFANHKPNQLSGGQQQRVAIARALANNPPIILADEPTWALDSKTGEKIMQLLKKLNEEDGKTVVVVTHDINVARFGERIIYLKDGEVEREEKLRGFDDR

On to `Nc1ncnc2c1ncn2[C@@H]1O[C@H](COP(=O)(O)OP(=O)(O)OP(=O)(O)O)[C@@H](O)[C@H]1O` [ATP], for which the affinity, expressed as Kd, was 70 ± 13 µM.
